From patent US20060052457A1, “Use of ppar alpha agonists for the treatment of vascular and renal diseases” (priority 2002, published 2006)
Entries after “also recorded” stand apart in the source; their conditions may differ.

What was measured:
H4IIE hepatoma cells [1] = assay: Basal DNA synthesis without mitogenic stimulation, quiescent H4IIE hepatoma cells; type: cell-based
Procedure: (§1) Quiescent SMCs (panel A) and H4IIE cells (panel B) were treated with PGJ2 and incorporation of thymidine was measured as previously described. Quiescent SMCs were also treated with WY-14643 (panel C) and incorporation of thymidine was measured. The data are presented as means±s.e. (n=3).

[2] = system: porcine coronary artery smooth muscle cells; assay: Basal DNA synthesis without mitogenic stimulation, quiescent porcine coronary artery SMCs; type: cell-based; conditions: for basal DNA synthesis in the absence of mitogenic stimulation: quiescent porcine coronary artery SMCs
Procedure: as §1

[3] = system: porcine coronary artery smooth muscle cells; assay: [3H]thymidine incorporation (DNA synthesis) after PDGF stimulation, porcine coronary artery SMCs; type: cell-based; conditions: PDGF 0.1 μg, 72 h
Procedure: (§2) SMCs were prepared by explant culture as previously described, grown in 24-well culture dishes to 70% confluence and then placed into serum-free DMEM supplemented with insulin, ascorbate, pyruvate and selenium for 5 days. These conditions result in the cessation of cell growth, and markers of the contractile state are expressed. The cells were subsequently treated with PDGF (0.1 μg) in the presence or absence of WY-14643, and 2 μCi/mL [^3H]thymidine were added to the culture medium 24 hours later. Seventy-two hours following PDGF treatment, incorporation of thymidine into trichloroacetate-precipitable material was measured. The data, which is presented as means±s.e. (n=3), are shown for porcine SMCs (panel A), human saphenous vein SMCs (panel B) and human internal mammary artery SMCs (panel C). All values have been normalized relative to the incorporation in unstimulated quiescent cells (control=100).
Quiescent SMCs were treated with PDGF (01. μg/ml) in the presence and absence of PGJ2, and incorporation of thymidine was measured as previously described. The data are presented as means±s.e. (n=3).
Quiescent SMCs were treated with PDGF (0.1 μg) in the presence or absence of clofibrate, and incorporation of thymidine was measured as previously described. The data are presented as means±s.e. (n=3).

[4] = system: human saphenous vein SMCs; assay: [3H]thymidine incorporation (DNA synthesis) after PDGF stimulation, human saphenous vein SMCs; type: cell-based; conditions: PDGF 0.1 μg, 72 h
Procedure: as §2, with “C).” for “C). All values have been normalized relative to the incorporation in unstimulated quiescent cells (control=100).”

[5] = system: human internal mammary artery SMCs; assay: [3H]thymidine incorporation (DNA synthesis) after PDGF stimulation, human internal mammary artery SMCs; type: cell-based; conditions: PDGF 0.1 μg, 72 h
Procedure: as §2, with “C).” for “C). All values have been normalized relative to the incorporation in unstimulated quiescent cells (control=100).”

A10 smooth muscle cells = assay: [3H]thymidine incorporation (DNA synthesis) by A10 smooth muscle cells after PDGF or IGF-1; type: cell-based, rat; conditions: A10 SMCs, 72 h
Procedure: […] were cultured and quiescent cells were prepared in 24-well culture dishes as described in the legend for FIG. 2. The cells were treated with PDGF (0.1 μg) or IGF-1 (0.1 μM) in the presence or absence of WY-14643, and 2 μCi/mL [^3H]thymidine were added to the medium concurrent with the mitogens. Seventy-two hours following treatment, the cells were lysed and thymidine incorporation was measured as described above. […] (n=3), for A10 cells treated with PDGF (panel A) and IGF-1 (panel B).

[6] = system: Porcine coronary arteries; assay: Organ culture model of restenosis (balloon angioplasty ex vivo, neointimal index); type: cell-based; conditions: 250 μM continuous, 14 days in culture after balloon angioplasty ex vivo
Procedure: Porcine coronary arteries were subjected to balloon angioplasty ex vivo and placed into culture for 14 days. Treatment with WY-14643 (250 μM) was continuous over the entire time period. Subsequently, the vessel segments were sectioned and morphometry was employed to quantify the extent of restenosis. The neointimal index is defined as: neointimal area/medial area. The data are presented as means±s.e. (n=8). Control=no balloon angioplasty.

[7] = system: human proximal tubule cells; assay: Growth (cell number, Coulter counter) of human proximal tubule cells; type: cell-based
Procedure: Human proximal tubule cells were purchased from Clonetics and propagated in 24-well culture dishes with Renal Epithelial Cell Basal medium (REBM) containing 0.5% fetal bovine serum (FBS). Treatments were added once the cells reached 40% confluence. Incubation was continued for 4 days, at which time the cells were detached by trypsinization and cell number measured with a Coulter counter. All comparisons are relative to a cell population treated with 5 μg/ml aphidicolin, a non-toxic inhibitor of cell proliferation. The data are presented as means+/−s.e. (n=6).

H4IIE hepatoma cells [8] = assay: [3H]thymidine incorporation (DNA synthesis) by H4IIE hepatoma cells after IGF-1; type: cell-based; conditions: IGF-1 0.1 μM, 72 h
Procedure: H4IIE hepatoma cells were cultured and quiescent cells were prepared in 24-well culture dishes by placing the cells into serum-free α-MEM for 3 days. The cells were treated with IGF-1 (0.1 μM) in the presence or absence of WY-14643, and 2 μCi/mL [^3H]thymidine were added concurrent with the treatment. Seventy-two hours following treatment, the cells were lysed and thymidine incorporation was measured as described above. The data are presented as means+/−s.e. (n=3).

smooth muscle cells = assay: DNA synthesis by smooth muscle cells with PPAR-gamma agonists (FIG. 13); type: cell-based

SMILES | basal DNA synthesis in the absence of mitogenic stimulation (H4IIE hepatoma cells [1]) | basal DNA synthesis in the absence of mitogenic stimulation [2] | DNA synthesis (thymidine incorporation) in response to PDGF stimulation [3] | DNA synthesis (thymidine incorporation) in response to PDGF stimulation [4] | apparent toxicity / cytotoxicity (FIG. 9) ([2]; stated with reference to FIG. 9) | DNA synthesis (thymidine incorporation) in response to PDGF stimulation [5] | DNA synthesis in response to IGF-1 stimulation (A10 smooth muscle cells; IGF-1 0.1 μM) | DNA synthesis in response to PDGF stimulation (A10 smooth muscle cells; PDGF 0.1 μg) | neointimal proliferation / restenosis (neointimal index) [6] | growth of human proximal tubule cells (cell number) ([7]; 4 days incubation, relative to aphidicolin 5 μg/ml) | apparent toxicity in primary human renal proximal tubule cells ([7]; primary cultures) | DNA synthesis in response to stimulation by IGF-1 (H4IIE hepatoma cells [8]) | inhibition of DNA synthesis by smooth muscle cells (smooth muscle cells)
CCCCC[C@H](O)/C=C/[C@H]1C(=O)C=C[C@@H]1C/C=C\CCCC(=O)O [PGJ2] | inhibits basal DNA synthesis | inhibits basal DNA synthesis | inhibits DNA synthesis; also recorded: is inhibitory | – | – | – | – | – | – | – | – | – | –
Cc1cccc(Nc2cc(Cl)nc(SCC(=O)O)n2)c1C [WY-14643] | – | has no effect | inhibited DNA synthesis; also recorded: can inhibit smooth muscle cell proliferation | inhibited DNA synthesis | without apparent toxicity | inhibited DNA synthesis | does not inhibit DNA synthesis; also recorded: could not inhibit the growth | does not inhibit DNA synthesis; also recorded: could not inhibit the growth | inhibits neointimal proliferation; also recorded: prevent restenosis | prevented cell growth; also recorded: effectively inhibits the growth | without apparent toxicity | inhibits DNA synthesis; also recorded: prevented cell growth | –
CCc1ccc(CCOc2ccc(CC3SC(=O)NC3=O)cc2)nc1 (stereo not drawn) [piaglitazone] | – | – | – | – | – | – | – | – | – | – | – | – | are not
